In patent US8455497B2, “Inhibitors of aspartyl protease” (Vertex Pharmaceuticals Incorporated, priority 1999, dated 2013):
Like-named read-outs stand apart in the source and are kept apart here.

What was measured:
HIV-1 (strain IIIB) = assay: Antiviral activity assay in MT4 cells (propidium iodide based); format: cell-based; details: Human immunodeficiency virus 1, IIIB; wild type HIV-1 virus, MT4 cells; read-out: Wildtype virus - IC50
Outline: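 Compound serial dilutions in RPMI/FCS received MT4 cells pre-infected 1 hr at 37°C with HIV-1 IIIB at 100×TCID50. After 5 days' culture and Nonidet-40 lysis, well DNA content was measured by propidium iodide dye; mock-infected cells served as control.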

[1] = tested on: D545701-14 multi protease inhibitor resistant virus; assay: Anti-viral activity against resistant virus D545701-14 in MT4 cells; format: cell-based, HIV-1
[2] = tested on: EP13 multi protease inhibitor resistant virus; assay: Anti-viral activity against resistant virus EP13 in MT4 cells; format: cell-based, HIV-1
Outline: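 MT4 cells infected for 1 h at 37 °C, MOI 100×TCID50, then diluted 6-fold onto pre-diluted compound and cultured 5 days (5% CO2). Viable-cell DNA content estimated by propidium iodide. EP13 carries protease mutations M46I, L63P, A71V, V82F/L, I84V, no RT mutations.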

[3] = Human immunodeficiency virus 1, MT4, read-out: D545701-14 mutant - IC50, D545701-14 multi protease inhibitor resistant virus, MT4 cells
[4] = Human immunodeficiency virus 1, MT4, read-out: EP13 mutant IC50, EP13 multi protease inhibitor resistant virus, MT4 cells
[5] = Human immunodeficiency virus 1, MT4, read-out: D545701-14 mutant - IC50
[6] = Human immunodeficiency virus 1, MT4, read-out: EP13 mutant IC50

Compound | IC50 (HIV-1 (strain IIIB)) [nM] | IC50 [1, 3] [nM] | IC50 [2, 4] [nM] | IC50 [1, 5] [nM] | IC50 [2, 6] [nM]
CC(C)CN(C[C@@H](O)[C@H](Cc1ccc(OCc2cccc(C#N)c2)cc1)NC(=O)O[C@H]1CO[C@H]2OCC[C@H]21)S(=O)(=O)c1cccc(N)c1 [Compound 289] | 1 to 10 | 1 to 10 | 1 to 10 |  | 
CC(C)CN(C[C@@H](O)[C@H](Cc1ccc(OCCCCN)cc1)NC(=O)O[C@H]1CO[C@H]2OCC[C@H]21)S(=O)(=O)c1cccc(N)c1 [Compound 292] | 10 to 100 | 10 to 100 | 10 to 100 |  | 
CC(C)CN(C[C@@H](O)[C@H](Cc1ccc(OCc2ccccn2)cc1)NC(=O)O[C@H]1CO[C@H]2OCCC21)S(=O)(=O)c1cccc(N)c1 (stereo partly drawn) [Compound 293] | 1 to 10 | 1 to 10 | 1 to 10 |  | 
CC(=O)Oc1ccc(S(=O)(=O)N(CC(C)C)C[C@@H](O)[C@H](Cc2ccc(OCc3ccccn3)cc2)NC(=O)O[C@H]2COC3OCC[C@H]32)cc1C (stereo partly drawn) [Compound 294] | 1 to 10 | 1 to 10 | 1 to 10 |  | 
Cc1cc(S(=O)(=O)N(CC(C)C)C[C@@H](O)[C@H](Cc2ccc(OCc3ccccn3)cc2)NC(=O)O[C@H]2CO[C@H]3OCC[C@H]32)ccc1O [Compound 295] | 1 to 10 | 1 to 10 | 1 to 10 |  | 
CC(C)CN(C[C@@H](O)[C@H](Cc1ccc(OCc2ccccn2)cc1)NC(=O)O[C@@H]1CO[C@H]2OCC[C@H]21)S(=O)(=O)c1ccc(N)cc1 [Compound 299, (3S,3aS,6aR)-hexahydrofuro[2,3-b]furan-3-yl (1S,2R)-3-[[(4-aminophenyl)sulfonyl]-(isobutyl)amino]-2-hydroxy-1-[4-(2-pyridinylmethoxy)benzyl]propylcarbamate] | 1 to 10 | 1 to 10 | 1 to 10 |  | 
Cc1nc(COc2ccc(C[C@H](NC(=O)O[C@@H]3CO[C@H]4OCC[C@H]43)[C@H](O)CN(CC(C)C)S(=O)(=O)c3ccc(N)cc3)cc2)cs1 [Compound 300, (3S,3aS,6aR)-hexahydrofuro[2,3-b]furan-3-yl (1S,2R)-3-[[(4-aminophenyl)sulfonyl]-(isobutyl)amino]-2-hydroxy-1-{4-[(2-methyl-1,3-thiazol-4-yl)methoxy]benzyl}propylcarbamate] | 1 to 10 | 1 to 10 | 1 to 10 |  | 
CC(C)CN(C[C@@H](O)[C@H](Cc1ccc(OCc2cccc(C#N)c2)cc1)NC(=O)O[C@@H]1CO[C@H]2OCC[C@H]21)S(=O)(=O)c1ccc(N)cc1 [Compound 301, (3S,3aS,6aR)-hexahydrofuro[2,3-b]furan-3-yl (1S,2R)-3-[[(4-aminophenyl)sulfonyl](isobutyl)amino]-1-{4-[(3-cyanobenzyl)oxy]benzyl}-2-hydroxypropylcarbamate] | 1 to 10 | 1 to 10 | 1 to 10 |  | 
COC(=O)CCCOc1ccc(C[C@H](NC(=O)OC2CO[C@H]3OCCC23)[C@H](O)CN(CC(C)C)S(=O)(=O)c2ccc3c(c2)OCO3)cc1 (stereo partly drawn) [Compound 303, Methyl 4-(4-{(2S,3R)-2-({[3R,3aS,6aR)-hexahydrofuro[2,3-b]furan-3-yloxy]carbonyl}amino)-4-[(1,3-benzodioxol-5-ylsulfonyl)(isobutyl)amino]-3-hydroxybutyl}phenoxy) butanoate] | 10 to 100 | 10 to 100 | 10 to 100 |  | 
CC(C)CN(C[C@@H](O)[C@H](Cc1ccc(OCC(F)(F)F)cc1)NC(=O)O[C@H]1CO[C@H]2OCC[C@H]21)S(=O)(=O)c1ccc2c(c1)OCO2 [Compound 304, (3R,3aS,6aR)-hexahydrofuro[2,3-b]furan-3-yl (1S,2R)-3-[(1,3-benzodioxol-5-ylsulfonyl)(isobutyl)amino]-2-hydroxy-1-[4-(2,2,2-trifluoroethoxy)benzyl]propylcarbamate] | 1 to 10 | 1 to 10 | 1 to 10 |  | 
CC(C)(CCCC#N)CN(C[C@@H](O)[C@H](Cc1ccc(OCc2ccccc2)cc1)NC(=O)O[C@H]1CO[C@H]2OCC[C@H]21)S(=O)(=O)c1ccc2c(c1)OCO2 [Compound 305, (3R,3aS,6aR)-Hexahydrofuro[2,3-b]furan-3-yl (1S,2R)-3-[(1,3-benzodioxol-5-ylsulfonyl)(5-cyano-2,2-dimethylpentyl)amino]-1-[4-(benzyloxy)benzyl]-2-hydroxypropylcarbamate] | 1 to 10 | 1 to 10 | 1 to 10 |  | 
CC(C)CN(C[C@@H](O)[C@@H](N)Cc1ccc(OCc2ccccc2)cc1)S(=O)(=O)c1ccc2c(c1)OCO2 [Compound 308, N-{(2R,3S)-3-Amino-4-[4-(benzyloxy)phenyl]-2-hydroxybutyl}-N-isobutyl-1,3-benzodioxole-5-sulfonamide] | 10 to 100 | 1 to 10 | 1 to 10 |  | 
CNC(=O)Oc1ccc(C[C@H](NC(=O)O[C@H]2CO[C@H]3OCC[C@H]32)[C@H](O)CN(CC(C)C)S(=O)(=O)c2ccc3c(c2)OCO3)cc1 [Compound 309, (3R,3aS,6aR)-Hexahydrofuro[2,3-b]furan-3-yl (1S,2R)-3-[(1,3-benzodioxol-5-ylsulfonyl)(isobutyl)amino]-2-hydroxy-1-(4-{[(methylamino)carbonyl]oxy}benzyl)propylcarbamate] | 1 to 10 |  |  | 1 to 10 | 1 to 10
CC(C)CN(C[C@@H](O)[C@H](Cc1ccc(OC(=O)NC(C)C)cc1)NC(=O)O[C@H]1CO[C@H]2OCC[C@H]21)S(=O)(=O)c1ccc2c(c1)OCO2 [Compound 310, (3R,3aS,6aR)-Hexahydrofuro[2,3-b]furan-3-yl (1S,2R)-3-[(1,3-benzodioxol-5-ylsulfonyl)(isobutyl)amino]-2-hydroxy-1-(4-{[(isopropylamino)carbonyl]oxy}benzyl)propylcarbamate] | 1 to 10 | 10 to 100 | 1 to 10 |  | 
CC(C)CN(C[C@@H](O)[C@H](Cc1ccc(OC(=O)N(C)C)cc1)NC(=O)O[C@H]1CO[C@H]2OCC[C@H]21)S(=O)(=O)c1ccc2c(c1)OCO2 [Compound 311, (3R,3aS,6aR)-Hexahydrofuro[2,3-b]furan-3-yl (1S,2R)-3[(1,3-benzodioxol-5-ylsulfonyl)(isobutyl)amino]-1-(4-{[(dimethylamino)carbonyl]oxy}benzyl)-2-hydroxypropylcarbamate] | 1 to 10 |  |  | 10 to 100 | 1 to 10
CC(C)CN(C[C@@H](O)[C@H](Cc1ccc(OC(N)=O)cc1)NC(=O)O[C@H]1CO[C@H]2OCC[C@H]21)S(=O)(=O)c1ccc2c(c1)OCO2 [Compound 312, (3R,3aS,6aR)-Hexahydrofuro[2,3-b]furan-3-yl (1S,2R)-1-{4-[(aminocarbonyl)oxy]benzyl}-3-[(1,3-benzodioxol-5-ylsulfonyl)(isobutyl)amino]-2-hydroxypropylcarbamate] | 10 to 100 | 10 to 100 | 1 to 10 |  | 
CC(C)CN(C[C@@H](O)[C@H](Cc1ccc(OC(=O)NCCn2ccnc2)cc1)NC(=O)O[C@H]1CO[C@H]2OCC[C@H]21)S(=O)(=O)c1ccc2c(c1)OCO2 [Compound 313, (3R,3aS,6aR)-Hexahydrofuro[2,3-b]furan-3-yl (1S,2R)-3-[(1,3-benzodioxol-5-ylsulfonyl)(isobutyl)amino]-2-hydroxy-1-{4-[({[2-(1H-imidazol-1-yl)ethyl]amino}carbonyl)oxy]benzyl}propylcarbamate] | 10 to 100 | 1 to 10 | 1 to 10 |  | 
